Test results: patent publication US8748624B2, “Picolinamido-propanoic acid derivatives useful as glucagon receptor antagonists” (Janssen Pharmaceutica NV, priority 2011, dated 2014)

target: human GCGR (Homo sapiens (Human), UniProt P47871); assay: Cellular functional assay, cAMP readout (glucagon-stimulated cAMP in HEK293 cells expressing human GCGR); format: cell-based; settings: hGluc-1 HEK cells, LANCE TR-FRET, IC50 converted to Ki, average if tested more than once
Method: IC50 Values in Cellular Functional Assays: cAMP Readout
Full-length human GCGR (Accession Number: NM000160) subcloned into pcDNA3.1 was stably transfected into HEK293 cells (hGluc-1 HEK) and maintained under G418 selection (500 μg/mL). Cell cultures were maintained in DMEM/F12 media supplemented with 10% FBS and 1% GlutaMax. Glucagon stimulated cAMP was quantified using LANCE technology as per manufacturer instructions. On the day of the experiment, spent media was removed and cells were washed with Hank's Buffered Saline solution (HBSS) and cells were harvested with non-enzymatic cell dissociation solution, then washed once with HBSS. Cells were re-suspended in stimulation buffer at a concentration of 0.83×10^6 cells/ml and cAMP detection antibody was added. 6 μl/well of this solution was then dispensed in a 384 well plate (cell density 5000 cells/well). Test compound was serially diluted in DMSO and 50 nl were dispensed on top of the cell solution and allowed to incubate for 30 minutes. 6 μl of a 2× glucagon solution (final concentration in assay […]) was then added and the reaction was terminated after 5 minutes with the addition of detection mix. The mixture was incubated, protected from light for 1.5 h. cAMP levels were quantified by TR-FRET in an EnVision instrument against a known standard. IC50's were generated by using a non-linear regression macro driven in Excel and converted to K, values.

human GCGR, sequence (P47871 26-477): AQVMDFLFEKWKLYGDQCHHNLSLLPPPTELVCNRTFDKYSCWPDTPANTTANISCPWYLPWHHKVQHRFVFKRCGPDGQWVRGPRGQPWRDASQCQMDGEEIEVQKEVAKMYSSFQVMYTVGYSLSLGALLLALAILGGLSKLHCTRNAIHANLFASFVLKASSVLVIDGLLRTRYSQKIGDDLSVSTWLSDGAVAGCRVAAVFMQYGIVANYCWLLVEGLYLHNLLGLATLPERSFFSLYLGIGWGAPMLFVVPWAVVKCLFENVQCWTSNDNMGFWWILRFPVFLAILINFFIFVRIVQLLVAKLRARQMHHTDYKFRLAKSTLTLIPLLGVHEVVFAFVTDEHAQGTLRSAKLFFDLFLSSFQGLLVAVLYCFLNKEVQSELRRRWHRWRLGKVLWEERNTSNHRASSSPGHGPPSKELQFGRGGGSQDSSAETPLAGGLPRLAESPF

| SMILES | Ki [µM] |
| --- | --- |
| Cc1cc(NCc2c(-c3ccc(C(=O)NCCC(=O)O)nc3)cc(C(F)(F)F)cc2C(F)(F)F)ccc1-c1ccc(Cl)cc1 [Compound 86, 3-(5-(2-(((4′-chloro-2-methyl-[1,1′-biphenyl]-4-yl)amino)methyl)-3,5-bis(trifluoromethyl)phenyl)picolinamido)propanoic acid] | 0.035 |
| N#Cc1cc(NCc2ccc(Cl)cc2-c2ccc(C(=O)NCCC(=O)O)nc2)ccc1-c1ccc(Cl)c(C(F)(F)F)c1 [Compound 98, 3-(5-(5-chloro-2-(((4′-chloro-2-cyano-3′-(trifluoromethyl)-[1,1′-biphenyl]-4-yl)amino)methyl)phenyl)picolinamido)propanoic acid] | 0.195 |
| N#Cc1cc(NCc2ccc(Cl)cc2-c2ccc(C(=O)NCCC(=O)O)nc2)ccc1-c1ccc(Cl)cc1Cl [Compound 99, 3-(5-(5-chloro-2-(((2′,4′-dichloro-2-cyano-[1,1′-biphenyl]-4-yl)amino)methyl)phenyl)picolinamido)propanoic acid] | 0.0654 |
| N#Cc1cc(NCc2ccc(Cl)cc2-c2ccc(C(=O)NCCC(=O)O)nc2)ccc1-c1ccc(F)c(C(F)(F)F)c1 [Compound 100, 3-(5-(5-chloro-2-(((2-cyano-4′-fluoro-3′-(trifluoromethyl)-[1,1′-biphenyl]-4-yl)amino)methyl)phenyl)picolinamido)propanoic acid] | 0.135 |
| N#Cc1cc(NCc2ccc(Cl)cc2-c2ccc(C(=O)NCCC(=O)O)nc2)ccc1-c1cccc(C(F)(F)F)c1Cl [Compound 101, 3-(5-(5-chloro-2-(((2′-chloro-2-cyano-3′-(trifluoromethyl)-[1,1′-biphenyl]-4-yl)amino)methyl)phenyl)picolinamido)propanoic acid] | 0.095 |
| Cc1cc(Cl)ccc1-c1ccc(NCc2ccc(C(F)(F)F)cc2-c2ccc(C(=O)NCCC(=O)O)nc2)cc1C(F)(F)F [Compound 119, 3-(5-(2-(((4′-chloro-2′-methyl-2-(trifluoromethyl)-[1,1′-biphenyl]-4-yl)amino)methyl)-5-(trifluoromethyl)phenyl)picolinamido)propanoic acid] | 0.06 |
| Cc1cc(C(F)(F)F)ccc1-c1ccc(NCc2ccc(C(F)(F)F)cc2-c2ccc(C(=O)NCCC(=O)O)nc2)cc1C(F)(F)F [Compound 120, 3-(5-(2-(((2′-methyl-2,4′-bis(trifluoromethyl)-[1,1′-biphenyl]-4-yl)amino)methyl)-5-(trifluoromethyl)phenyl)picolinamido)propanoic acid] | 0.0374 |
| O=C(O)CCNC(=O)c1ccc(-c2cc(C(F)(F)F)ccc2CNc2ccc(-c3ccc(F)c(C(F)(F)F)c3)c(C(F)(F)F)c2)cn1 [Compound 121, 3-(5-(2-(((4′-fluoro-2,3′-bis(trifluoromethyl)-[1,1′-biphenyl]-4-yl)amino)methyl)-5-(trifluoromethyl)phenyl)picolinamido)propanoic acid] | 0.1 |
| O=C(O)CCNC(=O)c1ccc(-c2cc(C(F)(F)F)ccc2CNc2ccc(-c3ccc(F)cc3F)c(C(F)(F)F)c2)cn1 [Compound 125, 3-(5-(2-(((2′,4′-difluoro-2-(trifluoromethyl)-[1,1′-biphenyl]-4-yl)amino)methyl)-5-(trifluoromethyl)phenyl)picolinamido)propanoic acid] | 0.205 |
| O=C(O)CCNC(=O)c1ccc(-c2cc(C(F)(F)F)ccc2CNc2ccc(-c3ccc(C(F)(F)F)cc3)c(C(F)(F)F)c2)cn1 [Compound 127, 3-(5-(2-(((2,4′-bis(trifluoromethyl)-[1,1′-biphenyl]-4-yl)amino)methyl)-5-(trifluoromethyl)phenyl)picolinamido)propanoic acid] | 0.07 |
| COc1cc(C(F)(F)F)cc(-c2ccc(C(=O)NCCC(=O)O)nc2)c1CNc1cc(Cl)c(-c2ccc(Cl)cc2)c(Cl)c1 [Compound 160, 3-(5-(3-methoxy-2-(((2,4′,6-trichloro-[1,1′-biphenyl]-4-yl)amino)methyl)-5-(trifluoromethyl)phenyl)picolinamido)propanoic acid] | 0.65 |
| COc1cc(C(F)(F)F)cc(-c2ccc(C(=O)NCCC(=O)O)nc2)c1CNc1ccc(-c2ccc(Cl)cc2)c(Cl)c1 [Compound 162, 3-(5-(2-(((2,4′-dichloro-[1,1′-biphenyl]-4-yl)amino)methyl)-3-methoxy-5-(trifluoromethyl)phenyl)picolinamido)propanoic acid] | 0.0469 |
| O=C(O)CCNC(=O)c1ccc(-c2cc(C(F)(F)F)cc(O)c2CNc2ccc(-c3ccc(Cl)cc3)c(Cl)c2)cn1 [Compound 164, 3-(5-(2-(((2,4′-dichloro-[1,1′-biphenyl]-4-yl)amino)methyl)-3-hydroxy-5-(trifluoromethyl)phenyl)picolinamido)propanoic acid] | 0.0612 |
| Cc1cc(Cl)ccc1-c1ccc(NCc2c(C)cc(C(F)(F)F)cc2-c2ccc(C(=O)NCCC(=O)O)nc2)cc1Cl [Compound 165, 3-(5-(2-(((2,4′-dichloro-2′-methyl-[1,1′-biphenyl]-4-yl)amino)methyl)-3-methyl-5-(trifluoromethyl)phenyl)picolinamido)propanoic acid] | 0.0064 |
| Cc1cc(C(F)(F)F)ccc1-c1ccc(NCc2c(-c3ccc(C(=O)NCCC(=O)O)nc3)cc(C(F)(F)F)cc2C(C)C)cc1Cl [Compound 167] | 0.0108 |
| Cc1cc(C(F)(F)F)ccc1-c1ccc(NCc2c(-c3ccc(C(=O)NCCC(=O)O)nc3)cc(C(F)(F)F)cc2C2CC2)cc1Cl [Compound 177, 3-(5-(2-(((2-chloro-2′-methyl-4′-(trifluoromethyl)-[1,1′-biphenyl]-4-yl)amino)methyl)-3-cyclopropyl-5-(trifluoromethyl)phenyl)picolinamido)propanoic acid] | 0.0053 |

Further lines, results first:

| Ki [µM] | SMILES |
| --- | --- |
| 0.0173 | O=C(O)CCNC(=O)c1ccc(-c2cc(C(F)(F)F)cc(C(F)(F)F)c2CNc2ccc(-c3ccc(Cl)cc3Cl)cc2)cn1 [Compound 87, 3-(5-(2-(((2′,4′-dichloro-[1,1′-biphenyl]-4-yl)amino)methyl)-3,5-bis(trifluoromethyl)phenyl)picolinamido)propanoic acid] |
| 0.085 | O=C(O)CCNC(=O)c1ccc(-c2cc(C(F)(F)F)ccc2CNc2ccc(-c3ccc(Cl)cc3Cl)c(C(F)(F)F)c2)cn1 [Compound 122, 3-(5-(2-(((2′,4′-dichloro-2-(trifluoromethyl)-[1,1′-biphenyl]-4-yl)amino)methyl)-5-(trifluoromethyl)phenyl)picolinamido)propanoic acid] |
| 0.11 | O=C(O)CCNC(=O)c1ccc(-c2cc(C(F)(F)F)ccc2CNc2ccc(-c3ccc(Cl)cc3)c(C(F)(F)F)c2)cn1 [Compound 123, 3-(5-(2-(((4′-chloro-2-(trifluoromethyl)-[1,1′-biphenyl]-4-yl)amino)methyl)-5-(trifluoromethyl)phenyl)picolinamido)propanoic acid] |
| 0.285 | CC(C)(C)c1ccc(-c2ccc(NCc3ccc(C(F)(F)F)cc3-c3ccc(C(=O)NCCC(=O)O)nc3)cc2C(F)(F)F)cc1 [Compound 124, 3-(5-(2-(((4′-(tert-butyl)-2-(trifluoromethyl)-[1,1′-biphenyl]-4-yl)amino)methyl)-5-(trifluoromethyl)phenyl)picolinamido)propanoic acid] |
| > 5.2 | O=C(O)CCNC(=O)c1ccc(-c2cc(C(F)(F)F)ccc2CNc2ccc(-c3ccc(Cl)cc3F)c(C(F)(F)F)c2)cn1 [Compound 126, 3-(5-(2-(((4′-chloro-2′-fluoro-2-(trifluoromethyl)-[1,1′-biphenyl]-4-yl)amino)methyl)-5-(trifluoromethyl)phenyl)picolinamido)propanoic acid] |
| 0.0458 | O=C(O)CCNC(=O)c1ccc(-c2cc(C(F)(F)F)ccc2CNc2ccc(-c3ccc(C(F)(F)F)cc3Cl)c(C(F)(F)F)c2)cn1 [Compound 128, 3-(5-(2-(((2′-chloro-2,4′-bis(trifluoromethyl)-[1,1′-biphenyl]-4-yl)amino)methyl)-5-(trifluoromethyl)phenyl)picolinamido)propanoic acid] |
| 0.0458 | COc1cc(C(F)(F)F)cc(-c2ccc(C(=O)NCCC(=O)O)nc2)c1CNc1ccc(-c2ccc(C(F)(F)F)cc2)c(Cl)c1 [Compound 159, 3-(5-(2-(((2-chloro-4′-(trifluoromethyl)-[1,1′-biphenyl]-4-yl)amino)methyl)-3-methoxy-5-(trifluoromethyl)phenyl)picolinamido)propanoic acid] |
| 0.0387 | COc1cc(C(F)(F)F)cc(-c2ccc(C(=O)NCCC(=O)O)nc2)c1CNc1ccc(-c2ccc(C(F)(F)F)cc2Cl)cc1 [Compound 161, 3-(5-(2-(((2′-chloro-4′-(trifluoromethyl)-[1,1′-biphenyl]-4-yl)amino)methyl)-3-methoxy-5-(trifluoromethyl)phenyl)picolinamido)propanoic acid] |
| 0.0144 | Cc1cc(C(F)(F)F)cc(-c2ccc(C(=O)NCCC(=O)O)nc2)c1CNc1ccc(-c2ccc(C(F)(F)F)cc2)c(Cl)c1 [Compound 163] |
| 0.0082 | Cc1cc(C(F)(F)F)ccc1-c1ccc(NCc2c(C)cc(C(F)(F)F)cc2-c2ccc(C(=O)NCCC(=O)O)nc2)cc1Cl [Compound 166, 3-(5-(2-(((2-chloro-2′-methyl-4′-(trifluoromethyl)-[1,1′-biphenyl]-4-yl)amino)methyl)-3-methyl-5-(trifluoromethyl)phenyl)picolinamido)propanoic acid] |
